The values that follow come from patent US20260092071A1, “COMPOUNDS AND COMPOSITIONS AS SMARCA2/4 DEGRADERS AND USES THEREOF” (REGENTS OF THE UNIVERSITY OF MICHIGAN, priority 2022, published 2026).

The target of one assay is SMARCA2 (Homo sapiens, UniProt P51531). Briefly: HiBit assay in engineered HT1080 CRISPR knock-in cell, 6 hrs (B series), SMARCA2. The class given is cell-based. As to conditions: 6 hrs incubation; for DC50: read-out: SMARC A2 HT1080 HiBit DC50; for Dmax: HT-1080, HT1080 CRISPR knock-in cells, read-out: SMARC A2 HT1080 HiBit Dmax (%). A digest of the protocol:
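Remaining SMARCA2 protein measured as HiBiT luminescence after cell lysis with LgBiT plus lytic substrate. Engineered HT1080 knock-in cells (2000/well) were first treated 6 h at 37 °C with compound at a final 0.1% DMSO.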
A general note: With HiBiT, luminescence reflects the tagged protein that the partner subunit can reach.

Another assay deals with SMARCA4 (Homo sapiens, UniProt P51532). The assay can be described thus: HiBit assay in engineered HT1080 CRISPR knock-in cell, 6 hrs (B series), SMARCA4. The class given is cell-based. As to conditions: 6 hrs incubation; for DC50: read-out: SMARC A4 HT1080 HiBit DC50; for Dmax: HT-1080, HT1080 CRISPR knock-in cells, read-out: SMARC A4 HT1080 HiBit Dmax(%). A digest of the protocol:
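Protein abundance is measured in HiBiT-tagged HT1080 CRISPR knock-in cells after a 6 hr compound treatment (0.1% DMSO) by lytic Nano-Glo HiBiT luminescence.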

Sequence of SMARCA4 (P51532 whole entry): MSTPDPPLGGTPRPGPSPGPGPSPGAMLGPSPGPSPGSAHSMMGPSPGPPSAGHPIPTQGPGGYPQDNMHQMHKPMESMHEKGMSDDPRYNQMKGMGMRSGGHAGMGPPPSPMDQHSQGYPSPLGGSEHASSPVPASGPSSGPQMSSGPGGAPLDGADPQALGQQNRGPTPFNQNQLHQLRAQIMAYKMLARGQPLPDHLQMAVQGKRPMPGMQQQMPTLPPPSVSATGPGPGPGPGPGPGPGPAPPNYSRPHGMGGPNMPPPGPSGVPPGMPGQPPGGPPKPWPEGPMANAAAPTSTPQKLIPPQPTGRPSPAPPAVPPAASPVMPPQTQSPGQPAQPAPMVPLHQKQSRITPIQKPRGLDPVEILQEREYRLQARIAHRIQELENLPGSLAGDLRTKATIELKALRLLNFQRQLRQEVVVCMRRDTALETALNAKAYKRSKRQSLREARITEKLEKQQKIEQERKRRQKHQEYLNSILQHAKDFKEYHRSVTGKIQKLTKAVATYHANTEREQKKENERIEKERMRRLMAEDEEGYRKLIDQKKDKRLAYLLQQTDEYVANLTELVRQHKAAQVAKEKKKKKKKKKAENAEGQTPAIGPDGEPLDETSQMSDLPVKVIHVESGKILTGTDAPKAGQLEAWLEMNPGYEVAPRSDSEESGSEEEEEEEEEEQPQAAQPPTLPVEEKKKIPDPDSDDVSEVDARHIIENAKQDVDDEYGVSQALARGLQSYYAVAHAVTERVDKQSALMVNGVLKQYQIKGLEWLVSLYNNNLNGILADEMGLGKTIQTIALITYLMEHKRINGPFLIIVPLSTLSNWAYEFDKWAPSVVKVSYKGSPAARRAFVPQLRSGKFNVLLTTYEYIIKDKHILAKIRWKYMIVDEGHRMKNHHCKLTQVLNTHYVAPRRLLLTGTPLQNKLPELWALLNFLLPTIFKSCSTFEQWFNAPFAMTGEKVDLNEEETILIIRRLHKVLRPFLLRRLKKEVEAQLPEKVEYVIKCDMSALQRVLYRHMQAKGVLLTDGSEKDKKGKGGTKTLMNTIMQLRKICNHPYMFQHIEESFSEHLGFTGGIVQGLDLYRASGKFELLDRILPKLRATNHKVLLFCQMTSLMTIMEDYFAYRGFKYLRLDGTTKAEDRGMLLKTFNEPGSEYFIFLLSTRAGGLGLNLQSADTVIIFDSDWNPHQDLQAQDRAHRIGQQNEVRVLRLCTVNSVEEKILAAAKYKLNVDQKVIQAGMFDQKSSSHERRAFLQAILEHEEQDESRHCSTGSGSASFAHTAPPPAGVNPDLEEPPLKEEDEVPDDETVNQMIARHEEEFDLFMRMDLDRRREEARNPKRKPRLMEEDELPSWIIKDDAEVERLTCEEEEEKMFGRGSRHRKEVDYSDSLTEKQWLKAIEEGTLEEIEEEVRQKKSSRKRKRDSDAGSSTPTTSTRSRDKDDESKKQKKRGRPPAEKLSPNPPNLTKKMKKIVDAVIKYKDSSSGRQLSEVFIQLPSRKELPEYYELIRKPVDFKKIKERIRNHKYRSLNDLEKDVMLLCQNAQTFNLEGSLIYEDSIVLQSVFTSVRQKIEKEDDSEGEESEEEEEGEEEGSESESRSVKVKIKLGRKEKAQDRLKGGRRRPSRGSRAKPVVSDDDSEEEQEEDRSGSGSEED
Sequence of SMARCA2 (P51531 whole entry): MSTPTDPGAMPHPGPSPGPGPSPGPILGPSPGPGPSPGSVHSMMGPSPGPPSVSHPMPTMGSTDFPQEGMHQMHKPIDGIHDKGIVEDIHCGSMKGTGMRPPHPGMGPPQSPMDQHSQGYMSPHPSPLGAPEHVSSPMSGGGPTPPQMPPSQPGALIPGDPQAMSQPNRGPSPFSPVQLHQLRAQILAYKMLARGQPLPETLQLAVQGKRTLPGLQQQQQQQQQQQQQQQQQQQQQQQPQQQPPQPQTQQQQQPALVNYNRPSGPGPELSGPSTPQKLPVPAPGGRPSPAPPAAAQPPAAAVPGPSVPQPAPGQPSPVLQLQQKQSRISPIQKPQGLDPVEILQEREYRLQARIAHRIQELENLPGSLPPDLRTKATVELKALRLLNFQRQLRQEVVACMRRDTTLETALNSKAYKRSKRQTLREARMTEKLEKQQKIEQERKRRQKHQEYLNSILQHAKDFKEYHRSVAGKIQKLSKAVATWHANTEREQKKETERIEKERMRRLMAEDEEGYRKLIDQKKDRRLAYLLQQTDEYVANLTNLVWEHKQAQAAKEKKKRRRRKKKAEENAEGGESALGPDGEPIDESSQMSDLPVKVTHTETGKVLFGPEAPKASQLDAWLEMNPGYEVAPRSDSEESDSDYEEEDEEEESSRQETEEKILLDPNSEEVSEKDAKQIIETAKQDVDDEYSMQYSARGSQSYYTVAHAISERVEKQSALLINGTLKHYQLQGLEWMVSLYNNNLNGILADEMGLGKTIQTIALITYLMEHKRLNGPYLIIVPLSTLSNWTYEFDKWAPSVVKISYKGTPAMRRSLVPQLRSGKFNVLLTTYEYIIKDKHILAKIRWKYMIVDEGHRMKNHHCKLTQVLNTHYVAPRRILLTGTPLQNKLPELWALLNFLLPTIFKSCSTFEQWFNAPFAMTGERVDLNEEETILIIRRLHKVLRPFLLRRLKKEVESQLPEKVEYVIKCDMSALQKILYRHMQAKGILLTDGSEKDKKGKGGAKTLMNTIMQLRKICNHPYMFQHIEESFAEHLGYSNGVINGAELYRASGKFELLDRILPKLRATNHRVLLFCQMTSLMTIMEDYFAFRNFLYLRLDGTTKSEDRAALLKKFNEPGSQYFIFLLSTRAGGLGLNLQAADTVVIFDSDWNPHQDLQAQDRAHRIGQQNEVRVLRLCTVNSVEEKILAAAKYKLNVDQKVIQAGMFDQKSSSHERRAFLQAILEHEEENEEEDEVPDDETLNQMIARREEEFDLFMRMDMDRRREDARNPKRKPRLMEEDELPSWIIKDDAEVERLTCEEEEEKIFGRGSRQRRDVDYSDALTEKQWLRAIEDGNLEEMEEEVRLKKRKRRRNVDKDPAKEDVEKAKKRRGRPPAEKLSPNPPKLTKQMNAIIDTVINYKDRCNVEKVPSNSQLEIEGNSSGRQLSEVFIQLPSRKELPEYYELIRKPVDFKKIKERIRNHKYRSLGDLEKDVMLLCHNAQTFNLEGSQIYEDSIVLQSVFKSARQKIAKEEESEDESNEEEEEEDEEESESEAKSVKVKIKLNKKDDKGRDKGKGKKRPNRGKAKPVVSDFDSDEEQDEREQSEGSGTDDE

`Cc1ncsc1-c1ccc([C@H](C)NC(=O)[C@@H]2C[C@@H](O)CN2C(=O)[C@H](c2cc(N3CCC(C(=O)N4CCC(c5ccc6c(c5)C(C)(C)c5nc(=O)c7c(Cl)cccc7n5-6)CC4)CC3)no2)C(C)C)cc1` [Compound B89, (2S,4R)-1-(2-(3-(4-(4-(4-chloro-7,7-dimethyl-5-oxo-5,7-dihydroindolo[1,2-a]quinazolin-9-yl)piperidine-1-carbonyl)piperidin-1-yl)isoxazol-5-yl)-3-methylbutanoyl)-4-hydroxy-N—((S)-1-(4-(4-methylthiazol-5-yl)phenyl)ethyl)pyrrolidine-2-carboxamide]: the DC50 at SMARCA2 (HT1080 CRISPR knock-in cells) was less than 100 nM; on SMARCA4 (HT1080 CRISPR knock-in cells), 100 to 500 nM. Moreover, the Dmax at SMARCA2 and on SMARCA4 was greater than 90% throughout.
As for `Cc1ncsc1-c1ccc([C@H](C)NC(=O)[C@@H]2C[C@@H](O)CN2C(=O)[C@@H](c2cc(N3CCC(C(=O)N4CCC(c5ccc6c(c5)C(C)(C)c5nc(=O)c7c(Cl)cccc7n5-6)CC4)CC3)no2)C(C)C)cc1` [Compound B90, (2S,4R)-1-(2-(3-(4-(4-(4-chloro-7,7-dimethyl-5-oxo-5,7-dihydroindolo[1,2-a]quinazolin-9-yl)piperidine-1-carbonyl)piperidin-1-yl)isoxazol-5-yl)-3-methylbutanoyl)-4-hydroxy-N—((S)-1-(4-(4-methylthiazol-5-yl)phenyl)ethyl)pyrrolidine-2-carboxamide], the DC50 on SMARCA2 (HT1080 CRISPR knock-in cells) and on SMARCA4 (HT1080 CRISPR knock-in cells) was less than 100 nM in each case. In addition, the Dmax on SMARCA2 and on SMARCA4 was greater than 90% in each case.
In the case of `Cc1ncsc1-c1ccc([C@H](C)NC(=O)[C@@H]2C[C@@H](O)CN2C(=O)[C@@H](c2cc(OCC3(CN4CCC(c5ccc6c(c5)-n5c(nc(=O)c7c(Cl)cccc75)C6(C)C)CC4)CC3)no2)C(C)C)cc1` [Compound B91, (2S,4R)-1-((R)-2-(3-((1-((4-(4-chloro-7,7-dimethyl-5-oxo-5,7-dihydroindolo[1,2-a]quinazolin-10-yl)piperidin-1-yl)methyl)cyclopropyl)methoxy)isoxazol-5-yl)-3-methylbutanoyl)-4-hydroxy-N-((S)-1-(4-(4-methylthiazol-5-yl)phenyl)ethyl)pyrrolidine-2-carboxamide], the DC50 at SMARCA2 (HT1080 CRISPR knock-in cells) and at SMARCA4 (HT1080 CRISPR knock-in cells) was less than 100 nM each time. Also, the Dmax at SMARCA2 and at SMARCA4 was greater than 90% throughout.
In the case of `Cc1ncsc1-c1ccc([C@H](C)NC(=O)[C@@H]2C[C@@H](O)CN2C(=O)[C@@H](NC(=O)CCn2cc(-c3ccc4c(c3)-n3c(nc(=O)c5c(Cl)cccc53)C4(C)C)cn2)C(C)(C)C)cc1` [Compound B92, (2S,4R)-1-((S)-2-(3-(4-(4-chloro-7,7-dimethyl-5-oxo-5,7-dihydroindolo[1,2-a]quinazolin-10-yl)-1H-pyrazol-1-yl)propanamido)-3,3-dimethylbutanoyl)-4-hydroxy-N-((S)-1-(4-(4-methylthiazol-5-yl)phenyl)ethyl)pyrrolidine-2-carboxamide], the DC50 on SMARCA2 (HT1080 CRISPR knock-in cells) and at SMARCA4 (HT1080 CRISPR knock-in cells) was greater than 1000 nM in each case. For the same compound, the Dmax on SMARCA2 and on SMARCA4 was less than 50% each time.
Take `Cc1ncsc1-c1ccc([C@H](C)NC(=O)[C@@H]2C[C@@H](O)CN2C(=O)[C@@H](NC(=O)CCCn2cc(-c3ccc4c(c3)C(C)(C)c3nc(=O)c5c(Cl)cccc5n3-4)cn2)C(C)(C)C)cc1` [Compound B93, (2S,4R)-1-((S)-2-(4-(4-(4-chloro-7,7-dimethyl-5-oxo-5,7-dihydroindolo[1,2-a]quinazolin-9-yl)-1H-pyrazol-1-yl)butanamido)-3,3-dimethylbutanoyl)-4-hydroxy-N—((S)-1-(4-(4-methylthiazol-5-yl)phenyl)ethyl)pyrrolidine-2-carboxamide]: the DC50 at SMARCA2 (HT1080 CRISPR knock-in cells) and on SMARCA4 (HT1080 CRISPR knock-in cells) was 100 to 500 nM each time. Further, the Dmax was 50 to 69% at SMARCA2 and less than 50% on SMARCA4.
`Cc1ncsc1-c1ccc([C@H](C)NC(=O)[C@@H]2C[C@@H](O)CN2C(=O)[C@@H](c2cc(OC3CCC(Cn4cc(-c5ccc6c(c5)-n5c(nc(=O)c7c(Cl)cccc75)C6(C)C)cn4)CC3)no2)C(C)C)cc1` (stereo partly drawn) [Compound B95, (2S,4R)-1-((R)-2-(3-((4-((4-(4-chloro-7,7-dimethyl-5-oxo-5,7-dihydroindolo[1,2-a]quinazolin-10-yl)-1H-pyrazol-1-yl)methyl)cyclohexyl)oxy)isoxazol-5-yl)-3-methylbutanoyl)-4-hydroxy-N-((S)-1-(4-(4-methylthiazol-5-yl)phenyl)ethyl)pyrrolidine-2-carboxamide]: the DC50 is 100 to 500 nM at SMARCA2 (HT1080 CRISPR knock-in cells) and greater than 1000 nM on SMARCA4 (HT1080 CRISPR knock-in cells). The values for the Dmax on SMARCA2 and on SMARCA4 were 50 to 69% and less than 50%, respectively.
Consider `Cc1ncsc1-c1ccc([C@H](C)NC(=O)[C@@H]2C[C@@H](O)CN2C(=O)[C@@H](c2cc(OC3CCC(Cn4cc(-c5ccc6c(c5)-n5c(nc(=O)c7c(Cl)cccc75)C6(C)C)cn4)CC3)no2)C(C)C)cc1` (stereo partly drawn) [Compound B96, (2S,4R)-1-((R)-2-(3-((4-((4-(4-chloro-7,7-dimethyl-5-oxo-5,7-dihydroindolo[1,2-a]quinazolin-10-yl)-1H-pyrazol-1-yl)methyl)cyclohexyl)oxy)isoxazol-5-yl)-3-methylbutanoyl)-4-hydroxy-N-((S)-1-(4-(4-methylthiazol-5-yl)phenyl)ethyl)pyrrolidine-2-carboxamide], for which, at SMARCA2 (HT1080 CRISPR knock-in cells), the “SMARC A2 HT1080 HiBit Dmax (%)” value was “B (B (70-90% degradation))” and the DC50 is less than 100 nM. For the same compound, at SMARCA4 (HT1080 CRISPR knock-in cells), the “SMARC A4 HT1080 HiBit Dmax(%)” value is on record as “D (D (<50% degradation))” and the DC50 is 100 to 500 nM.
In the case of `Cc1ncsc1-c1ccc([C@H](C)NC(=O)[C@@H]2C[C@@H](O)CN2C(=O)[C@@H](c2cc(OCCCCn3cc(-c4ccc5c(c4)-n4c(nc(=O)c6c(Cl)cccc64)C5(C)C)cn3)no2)C(C)C)cc1` [Compound B97, (2S,4R)-1-((R)-2-(3-(4-(4-(4-chloro-7,7-dimethyl-5-oxo-5,7-dihydroindolo[1,2-a]quinazolin-10-yl)-1H-pyrazol-1-yl)butoxy)isoxazol-5-yl)-3-methylbutanoyl)-4-hydroxy-N-((S)-1-(4-(4-methylthiazol-5-yl)phenyl)ethyl)pyrrolidine-2-carboxamide], the DC50 at SMARCA2 (HT1080 CRISPR knock-in cells) and on SMARCA4 (HT1080 CRISPR knock-in cells) was 100 to 500 nM throughout. The Dmax at SMARCA2 is 50 to 69%; at SMARCA4 it was less than 50%.
As to `Cc1ncsc1-c1ccc([C@H](C)NC(=O)[C@@H]2C[C@@H](O)CN2C(=O)C(c2cc(OCCCCn3cc(-c4ccc5c(c4)C(C)(C)c4nc(=O)c6c(Cl)cccc6n4-5)cn3)no2)C(C)C)cc1` (stereo partly drawn) [Compound B99, (2S,4R)-1-(2-(3-(4-(4-(4-chloro-7,7-dimethyl-5-oxo-5,7-dihydroindolo[1,2-a]quinazolin-9-yl)-1H-pyrazol-1-yl)butoxy)isoxazol-5-yl)-3-methylbutanoyl)-4-hydroxy-N-((S)-1-(4-(4-methylthiazol-5-yl)phenyl)ethyl)pyrrolidine-2-carboxamide], the results for the DC50 on SMARCA2 (HT1080 CRISPR knock-in cells) and at SMARCA4 (HT1080 CRISPR knock-in cells) were less than 100 nM and greater than 1000 nM, respectively. Also, the Dmax at SMARCA2 is 50 to 69%; at SMARCA4, less than 50%.
